# In PMC8910920 (International Journal of Molecular Sciences, 2022):
# Legend:
# [1] = tested on: CCI rats, cold hypersensitivity; test: CCI model of neuropathic pain, cold sensitivity (acetone test); type: in vivo, rat; details: for cold hypersensitivity in CCI rats: 30 min after injection
# Description: The CCI model of neuropathic pain allowed the evaluation of the effect RGM8-51 on cold, heat and mechanical sensitivity, as assayed by the acetone test, the Hargreaves test, and the automatized von Frey test, respectively. RGM8-51 was applied either locally (i.pl.; 10 µg) in the affected paw or systemically (intraperitoneally, i.p., 10 and 30 mg/kg) and the effect evaluated before (Baseline) and after CCI surgery. The nocifensive response after administration of RGM8-51 was compared with that of vehicle, while non-operated animals and the uninjured (contralateral) hind paw in CCI animals were used as controls.
# Adult male Sprague-Dawley rats (weighing 200–220 g/6–8 weeks old) were used in these experiments. All experimental procedures were conducted according to the animal welfare guidelines of the European Community (European Directive 2010/63/UE) to minimize animal suffering and were approved by Universidad Complutense de Madrid and Comunidad de Madrid ethical committees on animal experimentation (PROEX 207.8/21). […]
# For behavioral testing, rats were placed in individual methacrylate boxes with a wire mesh floor, and after a period of 15 min acclimatization, the cold, heat and mechanical sensitivity of the ipsilateral and contralateral paws was determined. Cold sensitivity was assessed with the acetone test. In total, 100 µL acetone were locally applied to the plantar surface of the hind paw and the duration of the subsequent nocifensive response (licking, brushing, and flinching of the paw) was determined during 60 s. Acetone application and assessment were repeated 2 times with a 5 min interval and the sum of the two values was recorded. Heat sensitivity was determined with the Hargreaves test, which uses infrared light as a heat source, with a Hargreaves apparatus (Serie 8, Model 336, IITC Life Science, Woodland Hills, CA USA). The light beam was directed to the plantar surface of the hind paw and the time from the beginning of irradiation to the appearance of first paw withdrawal movement was measured (paw withdrawal latency). […]
# [2] = molecular target: T1, rTRPM8 (Rattus norvegicus, UniProt Q8R455); test: Whole-cell patch-clamp, HEK293-rTRPM8 cells; type: cell-based
# T1 construct: expressed in transfected cells
# Description: To confirm the antagonistic activity, electrophysiology (patch-clamp) studies were performed on HEK293 cells expressing the rTRPM8 channel. […] Then, using a holding voltage of −60 mV, different concentrations of RGM8-51 were used to establish the concentration/response curve for rTRPM8 current blockade.
# Whole-cell patch-clamp recordings from HEK293-rTRPM8 cells were carried out 2 days after seeding on 12 mm Ø glass coverslips treated with poly-L-lysine solution (Sigma Aldrich, Spain); the intracellular pipette solution contained (in mM) 150 NaCl, 5 EGTA, 3 MgCl2 and 10 HEPES, adjusted to pH 7.2 with NaOH, and the extracellular solution contained (in mM) 150 NaCl, 6 CsCl, 1.5 CaCl2, 1 MgCl2, 10 D-glucose and 10 HEPES, adjusted to pH 7.4 with NaOH. The TRPM8 activity was measured by the application of two pulses of 100 μM menthol in a time interval of 2 min and a 30 s perfusion of the different compound concentrations before the second menthol pulse.
# Data were sampled at 10 kHz (EPC10 amplifier with PatchMaster 2.53 software, HEKA Electronics, Lambrecht, Germany) and low-pass filtered at 3 kHz for analysis (PatchMaster 2.53 and GraphPad Prism 6.0, Graphpad Software, San Diego, CA, USA). The series resistance was <10 MΩ and to minimize voltage errors was compensated by 60–80%. […] Cell capacitance was measured and used to estimate the current density (J, pA/pF).
# Data analysis: For the whole-cell patch-clamp experiments, results are expressed as the percentage of remaining activation of the TRPM8 channel. This is calculated by normalizing the ratio (p2/p1) of testing conditions to the ratio (p2/p1) of the control condition. […] All data are expressed as the mean ± standard error of the mean (SEM) (n = 5–8). In the current-clamp experiments, the change in membrane potential is expressed as the difference between the resting membrane potential and the membrane potential after the addition of a stimuli. Data were analyzed as previously described (GraphPad 6.0, one-way ANOVA followed by Bonferroni multiple comparisons test, and ROUT method, Q = 10%).
# T1 sequence (Q8R455 whole entry): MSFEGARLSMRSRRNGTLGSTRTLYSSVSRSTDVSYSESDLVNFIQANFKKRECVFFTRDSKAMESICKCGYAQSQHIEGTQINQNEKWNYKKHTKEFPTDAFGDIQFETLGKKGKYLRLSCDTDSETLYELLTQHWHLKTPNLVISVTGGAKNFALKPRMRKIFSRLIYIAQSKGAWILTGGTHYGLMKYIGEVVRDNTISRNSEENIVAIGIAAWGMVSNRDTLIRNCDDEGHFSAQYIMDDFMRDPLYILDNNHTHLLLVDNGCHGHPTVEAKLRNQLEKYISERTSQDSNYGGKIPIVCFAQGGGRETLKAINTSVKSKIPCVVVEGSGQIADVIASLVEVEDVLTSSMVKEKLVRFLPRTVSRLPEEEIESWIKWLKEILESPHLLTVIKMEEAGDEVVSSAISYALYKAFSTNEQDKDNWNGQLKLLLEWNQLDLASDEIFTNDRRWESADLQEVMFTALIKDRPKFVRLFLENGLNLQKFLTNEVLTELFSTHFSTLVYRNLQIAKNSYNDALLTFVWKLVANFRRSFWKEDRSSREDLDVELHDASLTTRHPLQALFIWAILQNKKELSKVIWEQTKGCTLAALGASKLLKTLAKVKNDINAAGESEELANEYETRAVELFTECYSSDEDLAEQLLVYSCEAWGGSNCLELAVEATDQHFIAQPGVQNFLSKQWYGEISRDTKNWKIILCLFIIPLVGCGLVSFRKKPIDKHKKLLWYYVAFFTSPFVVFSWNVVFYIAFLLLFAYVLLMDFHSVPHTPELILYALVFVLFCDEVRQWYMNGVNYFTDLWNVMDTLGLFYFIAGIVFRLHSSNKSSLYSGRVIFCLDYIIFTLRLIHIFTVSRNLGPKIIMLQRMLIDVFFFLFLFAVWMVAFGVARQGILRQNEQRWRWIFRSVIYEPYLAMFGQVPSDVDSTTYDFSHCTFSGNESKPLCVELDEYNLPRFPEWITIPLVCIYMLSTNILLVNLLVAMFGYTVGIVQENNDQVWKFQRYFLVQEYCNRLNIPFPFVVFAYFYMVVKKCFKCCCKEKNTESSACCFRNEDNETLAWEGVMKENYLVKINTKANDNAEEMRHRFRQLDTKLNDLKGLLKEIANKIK
smiles,measurement,setting,value
"C[C@@H]1C(=O)N(C[C@H](Cc2ccccc2)N(Cc2ccccc2)Cc2ccccc2)[C@]1(Cc1ccccc1)C(=O)OC(C)(C)C [RGM8-51, 4(S)-Benzyl-3S-methyl-4-(tert-butoxy)carbonyl-1-[(2′S-dibenzylamino-3′-phenyl)prop-1′-yl]-2-oxoazetidine]",cold hypersensitivity in CCI rats,[1]; i.p. 10 and 30 mg/kg,inhibited it dose-dependently
same,cold hypersensitivity in CCI rats,[1]; i.pl. 10 µg,reduced cold hypersensitivity
same,response to cold in non-operated animals (baseline) or contralateral uninjured paw,[1]; i.pl. or i.p.,no effect was observed
same,menthol-evoked outward rectifying current,"[2]; 10 μM compound, 100 µM menthol",clearly reduced
same,IC50,"[2]; HEK293-rTRPM8, 100 μM menthol, holding voltage −60 mV",970 ± 1560 nM
